The source of these data is patent US8598145B2, “Mitochondrially delivered anti-cancer compounds” (priority 2008, dated 2013).

For orientation: pKa means the pH at which an ionisable group is half protonated.

Read-outs that look alike come from different tables or passages of the source. Where only a bound is given, the exact number is not on record here.

For series [1] the following is noted: pH 6.2 versus pH 7.4 of the medium; cited from earlier work.
For series [2] the following is noted: cited from earlier work.
The test system of another series is EAhy926 cells. The series is described as follows: Angiogenesis in vitro: wound-healing and tube-forming (FIG. 7). The format is cell-based, human. Here is the method:
Wound-healing (A-F) and tube-forming activity (G, H) were assessed using the EC EAhy926 cells. For wound-healing activity, the cells were seeded in 35-mm Petri dishes and allowed to reach 100% confluency. The ‘injury’ was then performed, resulting in a denuded gap of 0.4-0.5 mm. Wound-healing activity in control cells and cells supplemented with 1, 5 or 10 μM MitoVES was assessed on the basis of proliferation and migration of cells into the denuded zone using a light microscope equipped with a grid and a digital camera (A). […] In panel C, representative images of injured control cells and cells treated with 10 μM MitoVES at different times are presented. […] EAhy926 cells were seeded at ˜10^5 per well in Matrigel-coated 24-well plates and allowed for 24 h to form tubes at the absence or presence of MitoVES. Complete capillaries connecting points of individual polygons (see General Materials and Methods) were counted per the field of 0.16 mm^2 and took as a measure of the tube-forming activity (F). […] At 20 h of treatment, the cells were retrieved from the Matrigel and assessed for apoptosis using the Annexin V binding method (H). Parental EAhy926 cells and their ρ^0 counterparts were seeded in Petri dishes at confluency, ‘injured’ as described above, and the wound-healing activity assessed in the absence or presence of 10 μM MitoVES (MVES) (I; see symbols above panel L). The healing rate was estimated from the slopes in panel I and plotted in […] (J). At 20 h, the cells were assessed for the level of apoptosis (K). Panel L documents tube-forming activity in Matrigel of the ρ^0 EAhy 926 cells in the absence or presence of 5 μM MitoVES. […]
To assess the effect of α-TOS on the wound-healing activity of the EAhy926 cells, the cells were seeded in […] Petri dishes and allowed to reach complete confluence. […] Regrowth of cells (wound healing) in the presence of α-TOS or α-TEA was assessed by following the kinetics of narrowing the denuded gap in the microscope equipped with a grid in the eyepiece and healing expressed as the ‘rate of filling the gap’ as the rate of healing in μm/h. […]

Another series deals with breast carcinomas. The series is described as follows: Spontaneous ductal breast carcinomas in transgenic mice (FIG. 9). The series is classed as in vivo, FVB/N c-neu mice. As to the method: The transgenic FVB/N c-neu female mice with spontaneous small breast carcinomas were treated with MitoVES at 3 μmol per mouse per dose and the tumour volume was assessed by repeated ultrasound imaging, monitoring tumour growth over several weeks.
For this purpose, the transgenic FVB/N c-neu mice that form spontaneous ductal breast carcinomas due to high level of expression of the oncogene, HER2 were used as a cancer model.

In the case of `Cc1c(C)c2c(c(C)c1OC(=O)CCC(=O)O)CC[C@@](C)(CCC[C@H](C)CCC[C@H](C)CCCC(C)C)O2` [α-TOS, α-tocopheryl succinate, reference compound], in series [1], the “uptake of the compound at lower pH” value is recorded as “about twice as much”. In addition, in series [2] (acidic pH of 6.2-6.4 of the tumour interstitium versus neutral pH), the “fold higher percentage in the protonated form” value is 10-15 fold. Moreover, in series [2] (at neutral pH), the fraction deprotonated was about 98%. Moreover, the pKa in series [2] is listed as under 6; in series [2] (listed as α-tocopheryl succinate), 5.6.

In the case of `Cc1c(C)c2c(c(C)c1OC(=O)CCC(=O)[O-])CCC(C)(CCCCCCCCCCC[P+](c1ccccc1)(c1ccccc1)c1ccccc1)O2` (centres unmarked) [MitoVE11S], in the series on EAhy926 cells (relative to α-TOS), the “fold greater potency as antiangiogenic drug than α-TOS” value is 5 fold. For the same compound, the “concentration needed for comparable levels of effects on endothelial cells” value in the series with EAhy926 cells (same endothelial cell types) is 5 to 10 µM. Further, the angiogenesis in vitro result with EAhy926 cells (wound-healing, tube-forming and apoptosis assays) is listed as “inhibits angiogenesis in vitro”. In addition, the “progression of breast cancer tumours” value in the series on breast carcinomas (3 μmol per mouse per dose, tumour volume by ultrasound imaging) is on record as “completely blocked progression”. For the same compound, the “toxicity in treated animals” value in the series on breast carcinomas (FVB/N c-neu mice) is “no obvious sign of toxicity”. Moreover, the “fold lower concentrations than needed for corresponding activity of α-TOS” value in the series with breast carcinomas (relative to α-TOS) is on record as about 10 fold.
